Measurements from the supplement of paper PMC6580486.

Test system: U23674 (mouse alveolar rhabdomyosarcoma primary culture)
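Further: alveolar rhabdomyosarcoma tumor culture.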

Row | Structure (SMILES) | IC50 cell viability [µM]
1 | COc1ccc(-c2cc(-c3cn[nH]c3-c3ccccn3)ccn2)cc1 | > 10
2 | Nc1nonc1-c1nc2cnccc2n1C1CCCCC1 | > 10
3 | Cc1c2ccc(N(C)c3ccnc(Nc4cccc(S(N)(=O)=O)c4)n3)cc2nn1C | > 10
4 | N#Cc1ccc2c(-c3ccnc(NC4CC4)n3)c(-c3ccc(F)cc3)nn2c1 | > 10
5 | N#Cc1ccc(Oc2nccc(-c3c(-c4ccc(F)cc4)ncn3C3CCNCC3)n2)cc1 | > 10
6 | COc1ccc(C2=C(N3CCc4ccccc43)C(=O)NC2=O)cc1 | > 10
7 | CN1CCN(C(=O)c2ccc(NC(=O)Nc3ccc(N(C)c4ccnc(Nc5ccc(CS(C)(=O)=O)cc5)n4)cc3)cc2)CC1 | > 10
8 | O=C(Nc1n[nH]c2cc(-c3ccccc3)ccc12)C1CC1 | > 10
9 | COC(=O)Nc1nc2ccc(Oc3ccc(NC(=O)Nc4cccc(C(=O)O)c4)cc3)cc2[nH]1 | > 10
10 | Nc1ncnc2occ(-c3ccc(NC(=O)Nc4cc(C(F)(F)F)ccc4F)cc3)c12 | > 10
11 | CCn1c(-c2nonc2N)nc2c(C#CC(C)(C)O)ncc(OCC3CCNCC3)c21 | > 10
12 | Cc1ccc(-c2cc3c(NC(=O)C4CC4)ncnc3o2)cc1 | > 10
13 | Cc1cc(-c2ccco2)cc(C)c1/C=C/c1cncc(-c2nn[nH]n2)c1 | > 10
14 | CN(C)CCOc1ccc(-c2nc(-c3ccncc3)c(-c3ccc4c(c3)CC/C4=N\O)[nH]2)cc1 | > 10
15 | COc1cc2ncn(-c3cc(OCc4cccs4)c(C(N)=O)s3)c2cc1OC | > 10
16 | COc1ccc(-c2nn3ncccc3c2-c2ccnc(Nc3ccc(F)c(F)c3)n2)cc1 | > 10
17 | Fc1ccc(-c2ncn(C3CCNCC3)c2-c2ccnc(Oc3ccccc3)n2)cc1 | 3.3
18 | COc1cccc(-n2ncc3c(N/N=C/c4cccc(F)c4)ncnc32)c1 | > 10
19 | Cc1cccc2c(N=Nc3ccc(S(N)(=O)=O)cc3)c(O)[nH]c12 | > 10
20 | COc1ccc2[nH]c3c4[nH]c5ccc(OC)cc5c4c4c(c3c2c1)C(=O)NC4=O | > 10
21 | CN(C)CCCNc1nccc(-c2c(-c3ccc(F)cc3)nn3cc(C(F)(F)F)ccc23)n1 | 2.2
22 | CN(C)C(=O)O[C@H]1CN[C@H](C#Cc2cc3ncnc(Nc4ccc(OCc5cccc(F)c5)c(Cl)c4)c3s2)C1 | > 10
23 | NC(=O)c1cccc(Nc2nccc(Nc3cccc(F)c3)n2)c1 | > 10
24 | NC(=O)Cc1ccccc1Oc1nccc(-c2c(-c3ccc(F)cc3)ncn2C2CCNCC2)n1 | > 10

Row | Structure (SMILES) | IC50 cell viability [µM]
25 | Cc1cc(Cl)cc2c(N=Nc3ccc(S(N)(=O)=O)cc3)c(O)[nH]c12 | > 10
26 | C[C@@H](Oc1cc(-n2cnc3ccc(OC[C@@H](O)CO)cc32)sc1C(N)=O)c1ccccc1Cl | 5.4
27 | CC(C)c1ccc(-c2cc(-c3cn[nH]c3-c3ccccn3)ccn2)cc1 | > 10
28 | c1cc(-c2cnn3nc(N4CCOCC4)ccc23)nc(NC2CC2)n1 | > 10
29 | COc1ccc(CNC(=O)c2ccc(-c3cc(-c4nnc(C)o4)ccc3C)cc2)cc1 | > 10
30 | FC(F)(F)CNc1nccc(-c2cnn3ncccc23)n1 | 4.4
31 | Cc1nnc(-c2ccc(C)c(-c3ccc(C(=O)Nc4cccc(C#N)c4)cc3)c2)o1 | > 10
32 | Cc1cc(O)cc(C)c1/C=C/c1cncc(C(=O)OC(C)(C)C)c1 | > 10
33 | COC(=O)Nc1nc2ccc(Oc3ccc(NC(=O)Nc4cccc(Br)c4)cc3)cc2[nH]1 | > 10
34 | COc1cccc(-n2ncc3c(N/N=C/c4ccc(S(C)(=O)=O)cc4)ncnc32)c1 | > 10
35 | CCS(=O)(=O)c1ccc(OC)c(Nc2ncc(-c3cccc(-c4ccccc4F)c3)o2)c1 | > 10
36 | CNC(=O)Oc1cc(C)c(/C=C/c2cncc(C(=O)NC)c2)c(C)c1 | > 10
37 | COc1ccc2cc(-c3c(-c4ccncc4)nc(-c4ccc(S(C)(=O)=O)cc4C)n3C)ccc2c1 | > 10
38 | COc1cc(N2CCN(C(C)C)CC2)ccc1Nc1nc(Nc2cccc(F)c2C(=O)O)c2cc[nH]c2n1 | > 10
39 | COc1cc(Nc2ncc(-c3ccccc3)o2)cc(OC)c1 | > 10
40 | Cc1ccc(Nc2ccnc(Nc3cccc(C(N)=O)c3)n2)cc1O | > 10
41 | Nc1nc(-c2ccc(F)cc2)c(-c2ccc3ncccc3n2)s1 | > 10
42 | Nc1nccc(-c2c(-c3ccc(F)cc3)nn3cc(C(F)(F)F)ccc23)n1 | > 10
43 | CS(=O)(=O)Nc1ccc(-c2ccc3c(NC(=O)C4CC4)n[nH]c3c2)cc1 | > 10
44 | CCS(=O)(=O)c1ccc(OC)c(Nc2ncc(-c3ccccc3Cl)o2)c1 | > 10
45 | CCn1c(-c2nonc2N)nc2c(C#CCN)ncc(OCCCN)c21 | > 10
46 | CCn1c(-c2nonc2N)nc2c(C#CC(C)(C)O)nc(OCCNC)cc21 | 1.3
47 | COc1cc(C=NNc2ncnc3c2cnn3Cc2ccccc2)ccc1O | > 10
48 | N#Cc1c(NC(=O)c2ccc(F)cc2)sc2c1CCCC2 | > 10

Row | Structure (SMILES) | IC50 cell viability [µM]
49 | OCCCNc1nccc(-c2c(-c3ccc(F)cc3)nn3cc(C(F)(F)F)ccc23)n1 | > 10
50 | Cc1ccc(C(=O)NC2CCCCC2)cc1-c1ccc(C(=O)NCC2CC2)cc1 | > 10
51 | FC(F)(F)c1cccc(Nc2nccc(-c3cnn4nc(-c5ccccc5)ccc34)n2)c1 | > 10
52 | COc1ccccc1Nc1ncc(-c2ccccc2)o1 | > 10
53 | CN1CCC(n2cnc(-c3ccc(F)cc3)c2-c2ccnc(Nc3ccccc3)n2)CC1 | > 10
54 | c1ccc(Cc2nc3ccc(Nc4ncnc5ccccc45)cc3[nH]2)cc1 | > 10
55 | CNC(=O)c1cc(-c2ccc(F)cc2)cc(-c2ccc(S(=O)(=O)N3CCCC3)cc2)c1N | > 10
56 | COc1cc2ncn(-c3cc(OCc4ccccc4Cl)c(C(N)=O)s3)c2cc1OC | > 10
57 | ON=C1CCc2cc(-c3nc(C4CCNCC4)[nH]c3-c3ccncc3)ccc21 | > 10
58 | Cc1ccc(C(=O)NC(C)C)cc1-c1ccc(C(=O)NCC2CC2)cc1 | > 10
59 | Cc1ccc(NC(=O)c2ccnc(N3CCCC3)c2)cc1-c1ccc(C(=O)NCC2CC2)cc1 | > 10
60 | COc1cc2ncn(-c3cc(OCCc4ccccc4)c(C(N)=O)s3)c2cc1OC | > 10
61 | NS(=O)(=O)c1ccc(N=Nc2c(O)[nH]c3cccc(CCc4ccncc4)c23)cc1 | > 10
62 | Nc1nccc(-c2c(-c3ccc(F)cc3)ncn2C2CCC(O)CC2)n1 (stereo not given) | > 10
63 | [O-][S+]1CCN(Cc2ccc(-c3ccc4ncnc(Nc5ccc(OCc6ccccc6)c(F)c5)c4c3)o2)CC1 | > 10
64 | COc1ccc(-c2ccncc2)cc1C(N)=O | > 10
65 | Fc1cccc(COc2ccc(Nc3ncncc3C#Cc3ccccc3)cc2Cl)c1 | > 10
66 | COc1ccccc1-c1cc(/C=C2\C(=O)Nc3ncc(Br)cc32)cc(Br)c1O | > 10
67 | CS(=O)(=O)CCNCc1cc(-c2cc3c(Nc4ccc(OCc5cccc(F)c5)c(Cl)c4)ncnc3s2)cs1 | > 10
68 | NC(=O)c1ccc(Oc2nccc(-c3c(-c4ccc(F)cc4)ncn3C3CCNCC3)n2)cc1 | > 10
69 | Fc1ccc(-c2nn3ccccc3c2-c2ccncc2)cc1 | > 10
70 | COc1cc2ncn(-c3cc(OCc4ccccc4C(F)(F)F)c(C(C)=O)s3)c2cc1OC | > 10
